{"source": "PubChem BioAssay AID1918932", "about": "(Molecular Pharmacology Branch, DTP, NCI, 2023);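 further: spheroids exposed to agents for 7 days after 3 days growth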", "system": "171881-019-R-J1-PDC complex spheroid viability", "assay": "Anticancer human tumor 171881-019-R-J1-PDC patient-derived invasive breast carcinoma cell line growth inhibition", "settings": "for IC50: curve of first compound; for viability, T/C: stronger effect = lower value", "method_in_brief": "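Multicellular complex spheroids of tumor cells with human endothelial cells (HUVEC) and mesenchymal stem cells; the LSD1 inhibitor iadademstat was combined with standard-of-care or investigational agents. Top concentration at or near clinical Cmax, half-log dilutions; final DMSO ≤0.25%.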", "data": [{"smiles": "COc1cc(C2c3cc4c(cc3C(OC3OC5COC(C)OC5C(O)C3O)C3COC(=O)C23)OCO4)cc(OC)c1O", "note": "(stereo not given) + NC1CCC(NC2CC2c2ccccc2)CC1", "values": [{"measurement": "IC50", "setting": "second compound 0.1 µM", "value": 439, "unit": "nM"}, {"measurement": "IC50", "setting": "second compound 0.316 µM", "value": 440, "unit": "nM"}, {"measurement": "IC50", "setting": "second compound 1 µM", "value": 511, "unit": "nM"}, {"measurement": "IC50", "setting": "second compound 3.16 µM", "value": 536, "unit": "nM"}, {"measurement": "IC50", "setting": "second compound 10 µM", "value": 649, "unit": "nM"}, {"measurement": "viability, T/C", "setting": "second compound 0.1 µM, first compound 0.00949 µM", "value": 72.8, "unit": "%"}, {"measurement": "viability, T/C", "setting": "second compound 0.1 µM, first compound 0.03 µM", "value": 90.8, "unit": "%"}, {"measurement": "viability, T/C", "setting": "second compound 0.1 µM, first compound 0.0949 µM", "value": 87.9, "unit": "%"}, {"measurement": "viability, T/C", "setting": "second compound 0.1 µM, first compound 0.3 µM", "value": 56.8, "unit": "%"}, {"measurement": "viability, T/C", "setting": "second compound 0.1 µM, first compound 0.949 µM", "value": 33.2, "unit": "%"}, {"measurement": "viability, T/C", "setting": "second compound 0.1 µM, first compound 3 µM", "value": 18.5, "unit": "%"}, {"measurement": "viability, T/C", "setting": "second compound 0.316 µM, first compound 0.00949 µM", "value": 76.8, "unit": "%"}, {"measurement": "viability, T/C", "setting": "second compound 0.316 µM, first compound 0.03 µM", "value": 98.2, "unit": "%"}, {"measurement": "viability, T/C", "setting": "second compound 0.316 µM, first compound 0.0949 µM", "value": 94, "unit": "%"}, {"measurement": "viability, T/C", "setting": "second compound 0.316 µM, first compound 0.3 µM", "value": 58.1, "unit": "%"}, {"measurement": "viability, T/C", "setting": "second compound 0.316 µM, first compound 0.949 µM", "value": 33.1, "unit": "%"}, {"measurement": "viability, T/C", "setting": "second compound 0.316 µM, first compound 3 µM", "value": 18.4, "unit": "%"}, {"measurement": "viability, T/C", "setting": "second compound 1 µM, first compound 0.00949 µM", "value": 87.6, "unit": "%"}, {"measurement": "viability, T/C", "setting": "second compound 1 µM, first compound 0.03 µM", "value": 87.8, "unit": "%"}, {"measurement": "viability, T/C", "setting": "second compound 1 µM, first compound 0.0949 µM", "value": 86.5, "unit": "%"}, {"measurement": "viability, T/C", "setting": "second compound 1 µM, first compound 0.3 µM", "value": 57.9, "unit": "%"}, {"measurement": "viability, T/C", "setting": "second compound 1 µM, first compound 0.949 µM", "value": 39, "unit": "%"}, {"measurement": "viability, T/C", "setting": "second compound 1 µM, first compound 3 µM", "value": 19.8, "unit": "%"}, {"measurement": "viability, T/C", "setting": "second compound 3.16 µM, first compound 0.00949 µM", "value": 80.7, "unit": "%"}, {"measurement": "viability, T/C", "setting": "second compound 3.16 µM, first compound 0.03 µM", "value": 99.1, "unit": "%"}, {"measurement": "viability, T/C", "setting": "second compound 3.16 µM, first compound 0.0949 µM", "value": 96.4, "unit": "%"}, {"measurement": "viability, T/C", "setting": "second compound 3.16 µM, first compound 0.3 µM", "value": 60.3, "unit": "%"}, {"measurement": "viability, T/C", "setting": "second compound 3.16 µM, first compound 0.949 µM", "value": 40.8, "unit": "%"}, {"measurement": "viability, T/C", "setting": "second compound 3.16 µM, first compound 3 µM", "value": 22.2, "unit": "%"}, {"measurement": "viability, T/C", "setting": "second compound 10 µM, first compound 0.00949 µM", "value": 80.9, "unit": "%"}, {"measurement": "viability, T/C", "setting": "second compound 10 µM, first compound 0.03 µM", "value": 104, "unit": "%"}, {"measurement": "viability, T/C", "setting": "second compound 10 µM, first compound 0.0949 µM", "value": 95, "unit": "%"}, {"measurement": "viability, T/C", "setting": "second compound 10 µM, first compound 0.3 µM", "value": 67.8, "unit": "%"}, {"measurement": "viability, T/C", "setting": "second compound 10 µM, first compound 0.949 µM", "value": 42.5, "unit": "%"}, {"measurement": "viability, T/C", "setting": "second compound 10 µM, first compound 3 µM", "value": 25.8, "unit": "%"}]}, {"smiles": "COc1cc(Nc2ncc3c(n2)-c2ccc(Cl)cc2C(c2c(F)cccc2OC)=NC3)ccc1C(=O)O", "note": "+ NC1CC1c1ccc(-c2cccc(O)c2)cc1", "values": [{"measurement": "IC50", "setting": "second compound 0.1 µM", "value": 442, "unit": "nM"}, {"measurement": "IC50", "setting": "second compound 0.316 µM", "value": 506, "unit": "nM"}, {"measurement": "IC50", "setting": "second compound 1 µM", "value": 517, "unit": "nM"}, {"measurement": "IC50", "setting": "second compound 3.16 µM", "value": 380, "unit": "nM"}, {"measurement": "IC50", "setting": "second compound 10 µM", "value": 301, "unit": "nM"}, {"measurement": "viability, T/C", "setting": "second compound 0.1 µM, first compound 0.00316 µM", "value": 59.8, "unit": "%"}, {"measurement": "viability, T/C", "setting": "second compound 0.1 µM, first compound 0.01 µM", "value": 67.3, "unit": "%"}, {"measurement": "viability, T/C", "setting": "second compound 0.1 µM, first compound 0.0316 µM", "value": 64.1, "unit": "%"}, {"measurement": "viability, T/C", "setting": "second compound 0.1 µM, first compound 0.1 µM", "value": 62.7, "unit": "%"}, {"measurement": "viability, T/C", "setting": "second compound 0.1 µM, first compound 0.316 µM", "value": 58.5, "unit": "%"}, {"measurement": "viability, T/C", "setting": "second compound 0.1 µM, first compound 1 µM", "value": 29.4, "unit": "%"}, {"measurement": "viability, T/C", "setting": "second compound 0.316 µM, first compound 0.00316 µM", "value": 60.5, "unit": "%"}, {"measurement": "viability, T/C", "setting": "second compound 0.316 µM, first compound 0.01 µM", "value": 68.1, "unit": "%"}, {"measurement": "viability, T/C", "setting": "second compound 0.316 µM, first compound 0.0316 µM", "value": 68, "unit": "%"}, {"measurement": "viability, T/C", "setting": "second compound 0.316 µM, first compound 0.1 µM", "value": 65.7, "unit": "%"}, {"measurement": "viability, T/C", "setting": "second compound 0.316 µM, first compound 0.316 µM", "value": 61.9, "unit": "%"}, {"measurement": "viability, T/C", "setting": "second compound 0.316 µM, first compound 1 µM", "value": 32.6, "unit": "%"}, {"measurement": "viability, T/C", "setting": "second compound 1 µM, first compound 0.00316 µM", "value": 67.2, "unit": "%"}, {"measurement": "viability, T/C", "setting": "second compound 1 µM, first compound 0.01 µM", "value": 70, "unit": "%"}, {"measurement": "viability, T/C", "setting": "second compound 1 µM, first compound 0.0316 µM", "value": 68.7, "unit": "%"}, {"measurement": "viability, T/C", "setting": "second compound 1 µM, first compound 0.1 µM", "value": 69.2, "unit": "%"}, {"measurement": "viability, T/C", "setting": "second compound 1 µM, first compound 0.316 µM", "value": 63.2, "unit": "%"}, {"measurement": "viability, T/C", "setting": "second compound 1 µM, first compound 1 µM", "value": 31.9, "unit": "%"}, {"measurement": "viability, T/C", "setting": "second compound 3.16 µM, first compound 0.00316 µM", "value": 71.3, "unit": "%"}, {"measurement": "viability, T/C", "setting": "second compound 3.16 µM, first compound 0.01 µM", "value": 75.5, "unit": "%"}, {"measurement": "viability, T/C", "setting": "second compound 3.16 µM, first compound 0.0316 µM", "value": 72.5, "unit": "%"}, {"measurement": "viability, T/C", "setting": "second compound 3.16 µM, first compound 0.1 µM", "value": 69.1, "unit": "%"}, {"measurement": "viability, T/C", "setting": "second compound 3.16 µM, first compound 0.316 µM", "value": 54.7, "unit": "%"}, {"measurement": "viability, T/C", "setting": "second compound 3.16 µM, first compound 1 µM", "value": 25.4, "unit": "%"}, {"measurement": "viability, T/C", "setting": "second compound 10 µM, first compound 0.00316 µM", "value": 59.4, "unit": "%"}, {"measurement": "viability, T/C", "setting": "second compound 10 µM, first compound 0.01 µM", "value": 61, "unit": "%"}, {"measurement": "viability, T/C", "setting": "second compound 10 µM, first compound 0.0316 µM", "value": 64.1, "unit": "%"}, {"measurement": "viability, T/C", "setting": "second compound 10 µM, first compound 0.1 µM", "value": 56.9, "unit": "%"}, {"measurement": "viability, T/C", "setting": "second compound 10 µM, first compound 0.316 µM", "value": 49.9, "unit": "%"}, {"measurement": "viability, T/C", "setting": "second compound 10 µM, first compound 1 µM", "value": 25.3, "unit": "%"}]}]}
